The text below walks through data of PMC8552062, “Contributions of UDP-Glucuronosyltransferases to Human Hepatic and Intestinal Metabolism of Ticagrelor and Inhibition of UGTs and Cytochrome P450 Enzymes by Ticagrelor and its Glucuronidated Metabolite” (Frontiers in Pharmacology, 2021).

Common to all, as to format: in vitro ADME
One data set has as its target T1, UGT1A1 (Homo sapiens, UniProt P22309).
T1 sequence (P22309 26-533): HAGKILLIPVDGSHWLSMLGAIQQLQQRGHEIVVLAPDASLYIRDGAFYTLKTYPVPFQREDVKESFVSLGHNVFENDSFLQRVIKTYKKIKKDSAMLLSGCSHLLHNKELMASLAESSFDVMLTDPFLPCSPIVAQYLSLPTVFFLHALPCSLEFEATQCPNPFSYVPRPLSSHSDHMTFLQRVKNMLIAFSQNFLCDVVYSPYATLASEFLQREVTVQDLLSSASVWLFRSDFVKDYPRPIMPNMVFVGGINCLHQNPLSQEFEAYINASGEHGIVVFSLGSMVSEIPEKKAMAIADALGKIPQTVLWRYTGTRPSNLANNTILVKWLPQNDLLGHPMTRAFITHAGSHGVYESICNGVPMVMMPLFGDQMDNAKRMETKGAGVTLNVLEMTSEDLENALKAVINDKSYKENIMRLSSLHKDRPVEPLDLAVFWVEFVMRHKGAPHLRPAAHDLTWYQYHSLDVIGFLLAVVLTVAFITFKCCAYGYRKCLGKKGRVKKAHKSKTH
The experiment in a line: Ticagrelor glucuronidation by recombinant human UGT1A1. To be noted: recombinant human UGT1A1, pH 7.4. Further details: purchased BD Gentest; host or cells: baculovirus-infected insect cells. On the procedure:
(§1) Ticagrelor glucuronidation was investigated in an in vitro incubation system by using HLM, HIM, and recombinant human UGTs. The incubation system consisted of enzyme sources (HLM, HIM, or human recombinant UGTs), various concentrations of ticagrelor (dissolved in 50% methanol, 1% v/v, 1, 2, 5, 10, 20, 50, 100, 200, 500 μM of final concentration), alamethicin (50 μg/mg protein), 5 mM MgCl2, 100 mM tris-HCL buffer (pH 7.4), and 5 mM UDPGA in a total volume of 100 μl. Alamethicin is a pore-forming polypeptide used to activate UGTs in HLM and HIM ([Fisher et al., 2000]). Preliminary studies were conducted to determine the optimal protein concentrations and incubation times. Linear conditions of ticagrelor-O-Glu formation from ticagrelor, i.e., HLM, 0.2 mg of protein/ml and 60 min, HIM, 0.2 mg of protein/ml and 60 min, and recombinant human UGTs, 0.2 mg of protein/ml and 60 min were selected. The incubation mixture without UDPGA was placed on ice for 15 min to activate UGT by alamethicin. […]
(§2) Kinetic analyses were performed using the mean values of triplicate determinations with either pooled HLM, HIM, or recombinant human UGTs. All data were analyzed by nonlinear regression analysis using the GraphPad Prism 6 (GraphPad Software Inc., CA, United States). […] Intrinsic clearance (CLint) was calculated by dividing Vmax by Km.

The next data set concerns the target T2, UGT1A7 (Homo sapiens, UniProt Q9HAW7).
T2 construct: purchased BD Gentest; host or cells: baculovirus-infected insect cells
The experiment in a line: Ticagrelor glucuronidation by recombinant human UGT1A7. To be noted: recombinant human UGT1A7, pH 7.4. On the procedure: as §1, §2

In another data set the target is T3, UGT1A4 (Homo sapiens, UniProt P22310).
T3 sequence (P22310 29-534): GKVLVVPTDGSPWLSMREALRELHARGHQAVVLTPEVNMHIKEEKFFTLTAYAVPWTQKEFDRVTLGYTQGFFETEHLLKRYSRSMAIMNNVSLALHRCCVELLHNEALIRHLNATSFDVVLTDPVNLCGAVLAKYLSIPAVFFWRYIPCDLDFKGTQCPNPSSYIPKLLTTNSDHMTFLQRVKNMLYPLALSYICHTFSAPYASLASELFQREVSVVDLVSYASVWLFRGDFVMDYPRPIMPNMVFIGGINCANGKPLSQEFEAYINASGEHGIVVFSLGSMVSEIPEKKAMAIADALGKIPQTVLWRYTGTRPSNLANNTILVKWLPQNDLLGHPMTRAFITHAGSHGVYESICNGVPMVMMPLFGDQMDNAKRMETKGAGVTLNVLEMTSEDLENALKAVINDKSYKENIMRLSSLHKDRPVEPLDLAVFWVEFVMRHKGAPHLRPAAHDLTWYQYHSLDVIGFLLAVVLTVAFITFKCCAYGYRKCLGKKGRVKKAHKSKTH
The experiment in a line: Ticagrelor glucuronidation by recombinant human UGT1A4. To be noted: recombinant human UGT1A4, pH 7.4. More on the design: purchased BD Gentest; host or cells: baculovirus-infected insect cells. On the procedure: as §1, §2

T2 sequence (Q9HAW7 26-530): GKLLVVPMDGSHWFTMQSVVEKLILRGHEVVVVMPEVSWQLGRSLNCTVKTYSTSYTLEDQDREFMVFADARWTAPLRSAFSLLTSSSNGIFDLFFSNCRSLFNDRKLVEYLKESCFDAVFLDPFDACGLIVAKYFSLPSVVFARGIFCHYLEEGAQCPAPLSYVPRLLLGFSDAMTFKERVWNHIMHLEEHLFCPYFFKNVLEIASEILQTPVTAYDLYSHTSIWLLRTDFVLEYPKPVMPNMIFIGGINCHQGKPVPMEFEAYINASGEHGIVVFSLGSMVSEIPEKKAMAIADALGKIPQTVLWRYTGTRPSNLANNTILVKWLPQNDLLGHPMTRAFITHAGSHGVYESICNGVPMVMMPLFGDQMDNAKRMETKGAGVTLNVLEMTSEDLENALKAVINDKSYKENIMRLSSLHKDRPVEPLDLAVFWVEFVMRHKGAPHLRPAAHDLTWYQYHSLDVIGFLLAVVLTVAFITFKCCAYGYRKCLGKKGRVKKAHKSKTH

The microsomal CLint is a measure of how fast metabolising enzymes remove a compound, apart from limits set by blood flow. Take `CCCSc1nc(N[C@@H]2C[C@H]2c2ccc(F)c(F)c2)c2nnn([C@@H]3C[C@H](OCCO)[C@@H](O)[C@H]3O)c2n1` [Ticagrelor]: the microsomal CLint at UGT1A1 stood at 0.03 µL/min/mg; on UGT1A7, 0.07 µL/min/mg; at UGT1A4, 0.04 µL/min/mg.
